Legend:
[1] = system: HER2; test: HER2 whole cell kinase ELISA (first HER2 column of Table 1); type: cell-based; settings: cell line not given
From the text: (§1) The following examples illustrates the ability of the exemplary compounds to inhibit receptor tyrosine kinases, such as HER2 and/or EGFR. The following target cells were used for cellular kinase assays: NIH3T3 clone C7 (Honegger et al., supra) engineered to over-express human EGF receptor; NIH3T3 cells engineered to over-express a chimeric receptor containing the EGFR extracellular domain and the HER2 intracellular kinase domain; the human mammary carcinoma line BT474 (ATCC HTB2) expressing HER2; and the human glioblastoma line U1242 that expresses PDGFR-beta. Growth assays were carried out using human mammary epithelial SKBR3 (ATCC HTB30) cells (SKBR3 cells over-express HER2), SKOV3 (AT(D(D HTB77) human ovarian cancer cell line (SKOV3 cells also over-express HER2), A431 cells (A431 cells over-express EGFR) MCF7 human breast carcinoma cells, MCF7 cells overexpressing the HER2 kinase (MCF7-HER2), NIH3T3 cells, and NIH3T3 cells overexpressing the HER2 kinase (3T3-HER2.
EGFR-HER2 Chimeric Recetor
HER2 kinase activity (EGFR-3T3) in whole cells was measured as described below:
The materials and regeants are identical to these used in example 1, the EGFR whole cell kinase assay.
A. Coat ELISA plates (Corning, 96 well, Cat. #25805-96) with 05-101 antibody at 0.5 µg per well in PBS, 100 μl final volume/well, and store overnight at 4.sunburst. C. Coated plates are good for up to 10 days when stored at 4° C.
(§2) B. On day of use, remove coating buffer and replace with 100 μl blocking buffer (5% Carnation Instant Non-Fat Dry Milk in PBS). Incubate the plate, shaking, at room temperature (about 23.sunburst. C. to 25.sunburst. C.) for 30 minutes. Just prior to use, remove blocking buffer and wash plate 4 times with TBST buffer.
A. An NIH3T3 cell line overexpressing a chimeric receptor containing the EGFR extracellular domain and extracellular HER2 kinase domain can be used for this assay.
B. Choose dishes having 80-90% confluence for the experiment. Trypsinize cells and stop reaction by adding 10% fetal bovine serum. Suspend cells in DMEM medium (10% CS DMEM medium) and centrifuge once at 1500 rpm, at room temperature for 5 minutes.
(§3) C. Resuspend cells in seeding medium (DMEM, 0.5% bovine serum), and count the cells using trypan blue. Viability above 90% is acceptable. Seed cells in DMEM medium (0.5% bovine serum) at a density of 10,000 cells per well, 100 μl per well, in a 96 well microtiter plate. Incubate seeded cells in 5% CO2 at 37.sunburst. C. for about 40 hours.
(§4) A. Check seeded cells for contamination using an inverted microscope. Dilute drug stock (10 mg/ml in DMSO) 1:10 in DMEM medium, then transfer 5 l to a TBST well for a final drug dilution of 1:200 and a final DMSO concentration of 1%. Control wells receive DMSO alone. Incubate in 5% CO2 at 37° C. for two hours.
B. Prepare EGF ligand: dilute stock EGF in DMEM so that upon transfer of 10 μl dilute EGF (1:12 dilution), 100 nM final concentration is attained.
D. After 120 minutes incubation with drug, add prepared […] ligand to cells, 10 μl per well, to a final concentration of 100 nM. Control wells receive DMEM alone. Incubate, shaking, at room temperature, for 5 minutes.
(§5) E. Remove drug, EGF, and DMEM. Wash cells twice with PBS. Transfer HNTG* to cells, 100 μl per well. Place on ice for 5 minutes. Meanwhile, remove blocking buffer from other ELISA plate and wash with TBST as described above.
(§6) F. With a pipette tip securely fitted to a micropipettor, scrape cells from plate and homogenize cell material by repeatedly aspirating and dispensing the HNTG* lysis buffer. Transfer lysate to a coated, blocked, and washed ELISA plate. Incubate shaking at room temperature for one hour.
(§7) G. Remove lysate and wash 4 times with TBST. Transfer freshly diluted anti-Ptyr antibody to ELISA plate at 100 μl per well. Incubate shaking at room temperature for 30 minutes in the presence of the anti-Ptyr antiserum (1:3000 dilution in TBST).
(§8) H. Remove the anti-Ptyr antibody and wash 4 times with TBST. […]

[2] = target: T1, EGFR (Homo sapiens, UniProt P00533); test: EGFR Whole Cell Kinase Assay (ELISA); type: cell-based; settings: NIH3T3 clone C7 over-expressing human EGF receptor
T1 construct: expressed in transfected cells; host or cells: NIH3T3 clone C7 (EGFR/C7)
From the text: as §1
EGFR Whole Cell Kinase Assay
EGFR kinase activity (EGFR-3T3 assay) in whole cells was measured as described below:
A. Coat ELISA plates (Corning, 96 well, Cat. #25805-96) with 05-101 antibody at 0.5 μg per well in PBS, 150 μl final volume/well, and store overnight at 4.sunburst. C. Coated plates are good for up to 10 days when stored at 4.sunburst. C.
as §2, with “with” for “with 100 μl”, “NonFat” for “Non-Fat”
A. EGFR/C7 cell line (Honegger, et al., supra) can be used for this assay.
B. Choose dishes having 80-90% confluence for the experiment. Trypsinize cells and stop reaction by adding 10% CS DMEM medium. Suspend cells in DMEM medium (10% CS DMEM medium) and centrifuge once at 1000 rpm, and once at room temperature for 5 minutes.
as §3
as §4, with “5 μl” for “5 l”, “a test” for “a TBST”, “for one hour.” for “for two hours.”
B. Prepare EGF ligand: dilute stock EGF in DMEM so that upon transfer of 10 μl dilute EGF (1:12 dilution), 25 nM final concentration is attained.
C. Prepare fresh HNTG* sufficient for 100 μl per well; and place on ice.
D. After two hours incubation with drug, add prepared EGF ligand to cells, 10 μl per well, to yield a final concentration of 25 nM. Control wells receive DMEM alone. Incubate, shaking, at room temperature, for 5 minutes.
as §5, §6, §7, §8

T1 sequence (P00533 25-1210): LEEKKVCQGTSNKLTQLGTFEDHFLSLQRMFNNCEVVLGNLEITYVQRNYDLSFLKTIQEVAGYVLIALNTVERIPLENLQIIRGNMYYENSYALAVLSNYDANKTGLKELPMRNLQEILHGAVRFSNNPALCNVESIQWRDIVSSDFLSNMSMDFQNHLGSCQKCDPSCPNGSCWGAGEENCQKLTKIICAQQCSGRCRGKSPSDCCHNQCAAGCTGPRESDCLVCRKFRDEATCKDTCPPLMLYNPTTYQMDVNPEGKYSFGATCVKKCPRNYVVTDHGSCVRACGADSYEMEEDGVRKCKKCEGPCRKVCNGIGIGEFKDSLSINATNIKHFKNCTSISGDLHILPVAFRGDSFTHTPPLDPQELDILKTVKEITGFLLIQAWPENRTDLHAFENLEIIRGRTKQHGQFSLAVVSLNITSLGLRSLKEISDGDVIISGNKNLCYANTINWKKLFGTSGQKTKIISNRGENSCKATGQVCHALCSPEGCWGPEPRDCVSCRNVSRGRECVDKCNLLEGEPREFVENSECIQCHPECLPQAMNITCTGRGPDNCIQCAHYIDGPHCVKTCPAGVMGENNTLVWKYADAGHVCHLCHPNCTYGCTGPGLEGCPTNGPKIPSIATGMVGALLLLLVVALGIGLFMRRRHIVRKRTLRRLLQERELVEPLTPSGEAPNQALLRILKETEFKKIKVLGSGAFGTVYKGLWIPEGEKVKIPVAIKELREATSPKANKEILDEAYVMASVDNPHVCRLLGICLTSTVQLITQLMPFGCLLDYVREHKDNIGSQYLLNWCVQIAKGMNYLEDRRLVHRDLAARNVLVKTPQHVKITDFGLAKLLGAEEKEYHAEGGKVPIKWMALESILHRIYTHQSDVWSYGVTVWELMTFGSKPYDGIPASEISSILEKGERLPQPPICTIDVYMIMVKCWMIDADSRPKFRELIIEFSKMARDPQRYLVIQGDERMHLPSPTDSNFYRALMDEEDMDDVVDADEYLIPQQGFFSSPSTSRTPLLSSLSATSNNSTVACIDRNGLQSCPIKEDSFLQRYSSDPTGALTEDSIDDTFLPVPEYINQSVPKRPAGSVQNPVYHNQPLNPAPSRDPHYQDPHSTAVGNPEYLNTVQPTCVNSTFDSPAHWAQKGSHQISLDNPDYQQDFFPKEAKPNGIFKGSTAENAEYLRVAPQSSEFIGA

Structure (SMILES) | IC50 [1] [µM] | IC50 [2] [µM]
CCOC(=O)c1cnc2ccc(C(F)(F)F)cc2c1Nc1ccc(C#N)cc1 [Compound A725, 4-(4-Cyanophenylamino)-3-ethoxycarbonyl-6-trifluoromethylquinoline] | > 100 | –
CCOC(=O)c1cnc2ccc(C(F)(F)F)cc2c1NCc1cccc(C(F)(F)F)c1 [Compound A718, 3-Ethoxycarbonyl-4-(3-trifluoromethylbenzylamino)-6-trifluoromethylquinoline] | > 100 | –
CCOC(=O)c1cnc2c(F)ccc(F)c2c1Sc1ccc(Cl)cc1 [Compound A732, 4-(4-Chlorophenylmercapto)-5,8-difluoro-3-ethoxycarbonylquinoline] | 50 | > 100
CCOC(=O)c1cnc2ccc(C(F)(F)F)cc2c1Nc1ccc(Br)cc1 [Compound A727, 4-(4-Bromophenylamino)-3-ethoxycarbonyl-6-trifluoromethylquinoline] | > 100 | –
CCOC(=O)c1cnc2c(F)ccc(F)c2c1Sc1cccc(C(F)(F)F)c1 [Compound A713, 3-Ethoxycarbonyl-5,8-difluoro-4-(3-trifluoromethylphenylmercapto)quinoline] | 7.9 | > 100
CCOC(=O)c1cnc2ccc(C(F)(F)F)cc2c1Nc1ccccc1C(F)(F)F [Compound A720, 3-Ethoxycarbonyl-4-(2-trifluoromethylphenylamino)-6-trifluoromethylquinoline] | > 100 | –
CCOC(=O)c1cnc2c(F)cc(F)cc2c1Sc1ccc(Cl)cc1 [Compound A730, 4-(4-Chlorophenylmercapto)-6,8-difluoro-3-ethoxycarbonylquinoline] | > 100 | > 50
CCOC(=O)c1cnc2ccc(C(F)(F)F)cc2c1Nc1ccc(C(F)(F)F)cc1 [Compound A722, 3-Ethoxycarbonyl-4-(4-trifluoromethylphenylamino)-6-trifluoromethylquinoline] | – | > 100
CCOC(=O)c1cnc2cc(Cl)c(F)cc2c1Sc1ccc(Cl)cc1 [Compound A731, 7-Chloro-4-(4-chlorophenylmercapto)-6-fluoro-3-ethoxycarbonylquinoline] | > 100 | > 50
CCOC(=O)c1cnc2ccc(C(F)(F)F)cc2c1NCc1ccccc1C(F)(F)F [Compound A717, 3-Ethoxycarbonyl-4-(2-trifluoromethylbenzylamino)-6-trifluoromethylquinoline] | > 100 | –
CCOC(=O)c1cnc2ccc(C(F)(F)F)cc2c1Nc1cccc(C(F)(F)F)c1 [Compound A721, 3-Ethoxycarbonyl-4-(3-trifluoromethylphenylamino)-6-trifluoromethylquinoline] | – | > 100
CCOC(=O)c1cnc2ccc(C(F)(F)F)cc2c1Nc1ccccc1C#N [Compound A723, 4-(2-Cyanophenylamino)-3-ethoxycarbonyl-6-trifluoromethylquinoline] | > 100 | –
CCOC(=O)c1cnc2ccc(C(F)(F)F)cc2c1NCc1ccc(C(F)(F)F)cc1 [Compound A719, 3-Ethoxycarbonyl-4-(4-trifluoromethylbenzylamino)-6-trifluoromethylquinoline] | > 100 | –
CCOC(=O)c1cnc2ccc(C(F)(F)F)cc2c1Nc1cccc(Cl)c1 [Compound A728, 4-(3-Chlorophenylamino)-3-ethoxycarbonyl-6-trifluoromethylquinoline] | > 100 | –
CCOC(=O)c1cnc2ccc(C(F)(F)F)cc2c1Nc1cccc(Br)c1 [Compound A716, 4-(3-Bromophenylamino)-3-ethoxycarbonyl-6-trifluoromethylquinoline] | – | > 100
CCOC(=O)c1cnc2ccc(C(F)(F)F)cc2c1Nc1ccc(Cl)cc1 [Compound A729, 4-(4-Chlorophenylamino)-3-ethoxycarbonyl-6-trifluoromethylquinoline] | > 100 | –
CCOC(=O)c1cnc2ccc(C(F)(F)F)cc2c1Nc1ccc(OC)c(OC)c1 [Compound A726, 3-Ethoxycarbonyl-4-(3,4-dimethoxyphenylamino)-6-trifluoromethylquinoline] | > 100 | –

Reference: patent US5650415A, “Quinoline compounds” (Sugen, Inc., priority 1995, dated 1997)
